Experimental findings from ChEMBL document CHEMBL1201862, “PubChem BioAssay data set” (2004) are described below.

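Protocol summary: plate cells (96-well), add compound at 5 concentrations, incubate 48 h, interpolate endpoints linearly. GI50: concentration for 50% inhibition of growth.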 Calls of active or inactive are those of the source. Rule as the data show it: active = GI50 up to about 1.1 µM and inactive = higher.

Some test systems named below: SNB-19; SK-OV-3; NCI-H23; SN12C; UACC-62; HT-29; SF-268; EKVX; LOX IMVI; HCT-116; IGROV-1; SF-295; OVCAR-3; CCRF-CEM; SF-539; COLO 205; SK-MEL-5; MOLT-4; K562; HOP-92.
Experiment in all cases: NCI-60 cell line screen, 48 h

Take `COC(=O)C1=C(OC(=O)/C=C/c2ccc(Cl)cc2)C(C(=O)OC)[C@@]2(O)[C@@H](C(=O)OC)[C@H](C)C[C@@H]1[C@@H]2C(=O)OC` (some centres undefined): the GI50 with SNB-19 is 30.8 µM (inactive); in the assay on SK-OV-3, 24.6 µM (inactive); in the assay with NCI-H23, 19.5 µM (inactive); in the assay with SN12C it was 19 µM (inactive); with UACC-62, 17.6 µM (inactive); in the assay with HT-29, 26.1 µM (inactive). Moreover, the GI50 in the assay with SF-268 is 16.7 µM (inactive); with EKVX, 22.5 µM (inactive); in the assay with LOX IMVI, 13.1 µM (inactive); with HCT-116, 23.8 µM (inactive); in the assay on IGROV-1 it was 3.94 µM (inactive); in the assay with SF-295, 29.4 µM (inactive). In addition, the GI50 in the assay on OVCAR-3 is 30.8 µM (inactive); with CCRF-CEM it was 13.2 µM (inactive); in the assay on SF-539, 17.6 µM (inactive); with COLO 205, 17.1 µM (inactive); in the assay on SK-MEL-5 it was 17.2 µM (inactive); in the assay with MOLT-4, 15.8 µM (inactive). Further, the GI50 with K562 was 21.6 µM (inactive).
With `COc1cc(C2C(C(=O)O)=C(CO)Oc3cc4c(cc32)OCO4)cc(OC)c1OC` (centres undefined), the GI50 in the assay on HOP-92 is 35.6 µM (inactive); in the assay with SNB-19, > 100 µM (inactive); with SK-OV-3, > 100 µM (inactive); in the assay on NCI-H23 it was > 100 µM (inactive); with SN12C, > 100 µM (inactive); with UACC-62 it was > 100 µM (inactive). Besides, the GI50 in the assay on HT-29, with EKVX, in the assay with LOX IMVI, in the assay on HCT-116, in the assay with IGROV-1 and in the assay with SF-295 was > 100 µM (inactive) each time. Moreover, the GI50 in the assay with CCRF-CEM, in the assay on COLO 205, with SK-MEL-5, in the assay on MOLT-4 and in the assay with K562 was > 100 µM (inactive) in each case.
With `NC(=S)N/N=C1\c2ccccc2CCC1CCC1(O)CCc2ccccc2C1=O` (centres undefined), the GI50 is 34.8 µM (inactive) in the assay on SNB-19; > 100 µM (inactive) with SK-OV-3; 25.5 µM (inactive) in the assay on NCI-H23; 18.1 µM (inactive) in the assay with SN12C; 17.8 µM (inactive) in the assay with UACC-62; 19.8 µM (inactive) in the assay on HT-29. Besides, the GI50 with SF-268 is 42.1 µM (inactive); with EKVX, 11.4 µM (inactive); with LOX IMVI, 19.3 µM (inactive); in the assay on HCT-116, 18.7 µM (inactive); in the assay with IGROV-1 it was 37.8 µM (inactive); with SF-295 it was 23 µM (inactive). In addition, the GI50 with OVCAR-3 is 18 µM (inactive); in the assay with CCRF-CEM, 22.6 µM (inactive); in the assay with SF-539, 15.3 µM (inactive); in the assay on COLO 205, 17.7 µM (inactive); with SK-MEL-5, 15 µM (inactive); in the assay with MOLT-4 it was 24.5 µM (inactive). Also, the GI50 in the assay on K562 was > 10 µM (inactive).
Regarding `CC(NC(C#N)CC12CC3CC(CC(C3)C1)C2)c1ccccc1` (centres undefined), the GI50 is 0.753 µM (active) in the assay on HOP-92; > 100 µM (inactive) in the assay with SNB-19; 59.6 µM (inactive) in the assay on SK-OV-3; 84.3 µM (inactive) with UACC-62; 31.3 µM (inactive) in the assay on HT-29; 47.4 µM (inactive) with SF-268. In addition, the GI50 in the assay on EKVX is > 100 µM (inactive); with LOX IMVI it was 17.8 µM (inactive); in the assay on HCT-116, 34.8 µM (inactive); in the assay on IGROV-1, 32.4 µM (inactive); with SF-295, 20.6 µM (inactive); in the assay on OVCAR-3 it was 13.6 µM (inactive). Also, the GI50 in the assay on CCRF-CEM was 20.7 µM (inactive); in the assay on COLO 205 it was 38.1 µM (inactive); in the assay with SK-MEL-5, > 100 µM (inactive); in the assay on MOLT-4, 27.9 µM (inactive); in the assay with K562, 23.1 µM (inactive).
Consider `O=C(Nc1nc2ccc([N+](=O)[O-])cc2s1)C(=O)C(C(=O)c1ccccc1F)C1OC(=O)c2ccccc21` (centres undefined), for which the GI50 was > 100 µM (inactive) with HOP-92; 28.6 µM (inactive) in the assay with SNB-19; 29 µM (inactive) in the assay on SK-OV-3; 67.1 µM (inactive) in the assay on NCI-H23; 40.5 µM (inactive) in the assay on SN12C; 29.6 µM (inactive) with UACC-62. Moreover, the GI50 in the assay on HT-29 is 40 µM (inactive); in the assay with SF-268 it was 34.2 µM (inactive); in the assay on EKVX it was 22.1 µM (inactive); in the assay with LOX IMVI, 27 µM (inactive); in the assay with HCT-116, 37.1 µM (inactive); in the assay with IGROV-1 it was 75.5 µM (inactive). Also, the GI50 with SF-295 was 56 µM (inactive); with CCRF-CEM, 17.3 µM (inactive); with SF-539 it was 21.3 µM (inactive); with COLO 205, 21.3 µM (inactive); with SK-MEL-5, 71.9 µM (inactive); with MOLT-4 it was 17.7 µM (inactive). In addition, the GI50 in the assay with K562 was 29.9 µM (inactive).
As for `COc1ccc(C(=O)/C(Br)=C/C(=O)O)cc1`, the GI50 with HOP-92 was 28.4 µM (inactive); in the assay with SNB-19 it was 77.6 µM (inactive); in the assay on SK-OV-3, 69.8 µM (inactive); in the assay with NCI-H23, 26.8 µM (inactive); in the assay with SN12C it was 37.8 µM (inactive); in the assay with UACC-62, 7.91 µM (inactive). Also, the GI50 was 76.7 µM (inactive) with HT-29; 31.6 µM (inactive) in the assay with SF-268; 37.8 µM (inactive) with EKVX; 20.5 µM (inactive) in the assay on LOX IMVI; 37.9 µM (inactive) with SF-295; 18.7 µM (inactive) in the assay with COLO 205. Besides, the results for the GI50 in the assay on SK-MEL-5, with MOLT-4 and in the assay on K562 were 20.7 µM (inactive), 17.6 µM (inactive) and 29.5 µM (inactive), respectively.
For the molecule `CC(=O)C(C(=O)C(=O)Nc1cc(Cl)c(Cl)cc1Cl)c1csc(N)n1` (centres undefined), the GI50 in the assay with HOP-92, in the assay with SNB-19, in the assay with SK-OV-3, in the assay on NCI-H23, in the assay on SN12C and with UACC-62 was > 100 µM (inactive) in each case. In addition, the GI50 in the assay on HT-29, with SF-268, in the assay on EKVX, in the assay on LOX IMVI, with HCT-116 and in the assay on IGROV-1 was > 100 µM (inactive) each time. Further, the GI50 in the assay with SF-295, in the assay with CCRF-CEM, with SF-539, in the assay with COLO 205, in the assay with SK-MEL-5 and in the assay with MOLT-4 was > 100 µM (inactive) each time. Further, in the assay on K562, the GI50 was > 100 µM (inactive).
As to `CN(C)c1ccc(N2C(=S)SC(=N\c3ccccc3)/C2=N/c2ccccc2)cc1`, the GI50 with SNB-19, with SK-OV-3, in the assay on NCI-H23, in the assay on SN12C, with UACC-62 and in the assay with HCT-116 was > 100 µM (inactive) throughout. For the same molecule, the GI50 in the assay on IGROV-1, in the assay with SF-295, with OVCAR-3, in the assay on CCRF-CEM, in the assay on COLO 205 and with SK-MEL-5 was > 100 µM (inactive) in each case. The GI50 with MOLT-4 is > 10 µM (inactive); with K562 it was > 100 µM (inactive).
